Assay results reported in patent US9205128B2, “Method for inhibiting HIV replication in mammal and human cells” (priority 2010, dated 2015).
No end group written: not given here.

Experiments:
HIV-1 [1] = conditions: PBMCs of infected individuals treated ex vivo; 15d-PGJ2 at 5 μM; vs untreated cells
Protocol: PBMCs were isolated from whole blood of HIV-1 infected individuals by Ficoll density gradients. […] Replication was evaluated by determining the p24 antigen concentration on culture supernatants by the ELISA method.

HIV-2 CBL-20 strain = experiment: HIV-2 replication in pre-stimulated PBMCs, p24; format: cell-based; conditions: 7 days
Protocol: PBMCs were isolated from whole blood of healthy individuals by using Ficoll density gradients. […] Cells were subsequently maintained in PHA-free medium and seeded at 150 000 cells per well in 96-well plates. After 24 h, peptides were added at different concentrations and the cultures were infected with the CBL-20 HIV-2 strain. The cultures were kept for 7 days, being changed every 3 days the medium and the peptides added. Cultures were harvested and supernatants collected to evaluate the presence of the p24 viral protein.

vimentin = target: T1, vimentin (Homo sapiens, UniProt P08670); experiment: Western blot of vimentin in MT4 cells incubated with peptides; format: cell-based; conditions: 50 μM peptide, 24 h
T1 construct: these proteins are endogenous cellular proteins rather than viral; endogenous in cells; host or cells: MT4 cell line (untransduced, shRNA-transduced MT4vim(s), or peptide-treated)
Protocol: The MT4 cell line was incubated at 50 μM of each peptide for 24 h. The vimentin protein was detected by the western blot technique. Cellular extracts were resuspended in 1% sodium dodecyl sulphate (SDS) and applied in a 10% polyacrylamide gel, being further transferred to a Hybond-P […] membrane. For immunoidentification purposes, anti-vimentin and anti-β actin (as control) antibodies were used. An anti-mouse IgG antibody-peroxidase conjugate was used as secondary antibody. The activity of the peroxidase enzyme was visualized by using diaminobenzidine in the presence of hydrogen peroxide and PBS.

[2] = system: cytoskeletal intermediate filaments (IFs); experiment: IFs structural analysis by transmission electron microscopy; format: cell-based, human; conditions: treated patients (two with SEQ ID No. 1, three with SEQ ID No. 2)
Protocol: Firstly, MT4vim(s), MT4K-10(s) and MT4 cells were fixed in 3.2% glutaraldehyde for 1 h at 4° C. and then fixed in 2% osmium tetroxide for 1 h at 4° C. They were subsequently washed with 0.1 M phosphate buffered saline (PBS), pH 7.2, and dehydrated at increasing ethanol concentrations (30, 50, 70 and 100%) for 10 min each at 4° C. Inclusion was carried out and ultrathin 40-50 nm-width sections were taken in an ultramicrotome (NOVA, LKB), which were placed on 400-orifices nickel trays. Once the ultrathin cuts were taken and placed on the trays, they were contrasted with saturated uranyl acetate and lead citrate, and further examined under a JEOL JEM 2000 EX (JEOL) microscope. Five microphotographs were analyzed at different magnifications. MT4 cell intact IFs are shown in FIG. 5A, meanwhile these structures appeared shortened in MT4vim(s) MT4K-10(s) cells (FIGS. 5B and C, respectively). […] Inhibition of the viral replication was observed under these conditions. Vimentin or keratin-10 proteins were identified at IFs by immunomicroscopy.
IFs structure was analyzed by transmission electron microscopy, following the methodology described in Example 3.
IFs structures were analyzed by transmission electron microscopy, following the methodology described in Example 3. […]

HIV-1 [3] = conditions: 150 mg per day, 6 months follow-up; two of eight patients (both formulations pooled)
MT4 cells = experiment: Cellular penetration of peptides by flow cytometry; format: cell-based, human; conditions: 5-40 μM, 15, 30 and 60 min
Protocol: HeLa CD4+ cells were seeded in RPMI medium supplemented at 10% FBS and incubated until reaching 60% confluence of the monolayer. MT4 cells were seeded at 50 000 cells per well in RPMI medium at 10% FBS. Peptides identified as SEQ ID No. 1 and SEQ ID No. 3 were resuspended in injection water and evaluated at 5, 10, and 40 μM concentrations. Peptides were incubated for […] at 37° C. under a 5% CO2 atmosphere, and penetration was evaluated after 15, 30 and 60 min. After each period of time, cells were harvested and immediately analyzed by flow cytometry. Three replicates were analyzed per experimental variant.

HIV-1 [4] = experiment: Total virus challenge of MT4 cells, p24 antigen ELISA; format: cell-based; conditions: HIV-1 Bru, m.o.i. 0.01, 5-day incubation
vimentin protein = conditions: Stamatakis et al. 2006; cited from earlier work

T1 sequence (P08670 whole entry): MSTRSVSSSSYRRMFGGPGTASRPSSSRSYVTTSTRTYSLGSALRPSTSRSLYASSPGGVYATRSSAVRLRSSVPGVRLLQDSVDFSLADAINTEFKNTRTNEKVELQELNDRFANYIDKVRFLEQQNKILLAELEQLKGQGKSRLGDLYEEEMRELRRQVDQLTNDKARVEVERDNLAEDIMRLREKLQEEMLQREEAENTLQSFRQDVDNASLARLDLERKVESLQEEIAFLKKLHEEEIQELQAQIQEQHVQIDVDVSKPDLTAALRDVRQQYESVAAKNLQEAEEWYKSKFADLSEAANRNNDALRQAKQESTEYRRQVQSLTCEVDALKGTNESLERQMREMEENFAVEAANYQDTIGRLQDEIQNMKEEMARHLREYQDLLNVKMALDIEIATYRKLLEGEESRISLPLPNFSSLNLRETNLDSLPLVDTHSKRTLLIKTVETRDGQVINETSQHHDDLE

Row | Molecule | % of HIV-1 inhibition (HIV-1 [1]) [%] | HIV-2 replication (HIV-2 CBL-20 strain) | vimentin band intensity (vimentin) | also measured
1 | RVTQMNLNDRLASLYDKVRALEESNYELEGKIKEW [Peptide 8] | 86.7 | inhibited HIV-2 replication in a dose-dependent manner | decreased intensity | 
2 | KVELQELNDRFANYIDKVRF [Peptide 3] | 85.3 |  |  | 
3 | DMEIATYRTLLEGEESRM [Peptide 2] | 81.1 | inhibited HIV-2 replication in a dose-dependent manner |  | IFs structure [2]: shortened; viral load after treatment (HIV-1 [3]): undetectable
4 | RVTQMNLNDRLASLYDKV [Peptide 1] | 89.3 |  |  | penetration into cells (MT4 cells): able to penetrate by their own into the MT4 cells
5 | RVTQMNLNDRLASLYDKVHYRIKPTFRRLKWKYKGKFW [Peptide 9] | 81.3 | inhibited HIV-2 replication in a dose-dependent manner | decreased intensity | 
6 | CCCCC/C=C/C=C1/C(=O)C=C[C@@H]1C/C=C\CCCC(=O)O [Peptide 15d-PGJ2, prostaglandin cyclopentane 15 deoxy-Δ-^12,14-PGJ2] | 80.1 |  |  | HIV replication (HIV-1 [4]): inhibits the HIV replication in vitro; binding to vimentin (vimentin protein): binds to the vimentin protein
